# According to patent US5250700A, “Phenyl pyrazolidinones as bronchodilators and anti-inflammatory agents” (American Home Products Corporation, priority 1992, dated 1993):
# Tested on: PDE IV
# Assay: Inhibition of PDE IV isolated from canine tracheal muscle (cAMP metabolism)
# Type: biochemical
# Details: canine trachealis PDE IV, 1 μM 3H-cAMP, 10 μM CI-930, 30° C., pH 7.8; reduction expressed relative to 10 μM rolipram
# Experimental: The following assay is employed to assess the ability of the compound of the invention to inhibit PDE IV. A solution containing PDE IV is prepared from canine tracheal muscle as follows: The dog is euthanized with an overdose of euthanasia while under anesthesia induced by a 33 mg/kg IV bolus of Nembutal. The trachealis muscle is removed, cleaned of connective tissue, and minced thoroughly. Three to four grams of tissue is then homogenized in Trim-HCl buffer (pH 7.8) using a Polytron. The homogenate is then centrifuged at 25,000×g (4° C.) for 30 minutes. The supernatant is decanted and filtered through four layers of gauze, and applied to a 40 cm×2 cm DEAE-Sepharose column that is equilibrated with Trim-HCl buffer (pH 7.8). The column is then washed with an additional 240 mL of buffer to remove unbound proteins. […] Each fraction is assayed for cAMP- and cGMP- metabolizing PDE activity. Fractions eluting at approximately 0.6 M Na-acetate, and containing CAMP but not CGMP metabolic activity are pooled and used as a PDE stock solution for assaying PDE IV inhibitory activity. […] CI-930 is included as an inhibitor of the cyclic GMP-sensitive, cyclic AMP-selectivePDE (PDE III) that is also present in the PDE IV stock solution when prepared as described above.
row,IC50,SMILES
1,0.19 µM,"COc1ccc(C2CC(=O)N(C(=O)NCCc3cccn3C)N2C)cc1OC1CCCC1 (stereo not shown) [Example 40, 3-(3-Cyclopentyloxy-4-methoxyphenyl)-2-methyl-5-oxo-pyrazolidine-1-carboxylic acid 2-(1-methyl-1H-pyrrol-2-yl) ethylamide]"
2,3.2 µM,"COc1ccc(C2CC(=O)N(C(=O)NN3CCOCC3)N2C)cc1OC1CCCC1 (stereo not shown) [Example 37, 3-(3-Cyclolpentyloxy-4-methoxyphenyl)-2-methyl-5-oxo-pyrazolidine-1-carboxylic acid morilholin-4-ylamide]"
3,0.058 µM,"COc1ccc(C2CC(=O)NN2Cc2ccccc2)cc1OC1CCCC1 (stereo not shown) [Example 34, 5-[3-(cyclopentyloxy)-4-methoxyphenyl]-1-(phenylmethyl)-3-pyrazolidinone]"
4,0.46 µM,"CNC(=O)N1C(=O)CC(c2ccc(OC)c(OC3CCCC3)c2)N1C (stereo not shown) [Example 9, 3-F3-(Cyclopentyloxy)-4-methoxyphenyl]-2-methyl-5-oxo-N-methyl-1-pyrazolidinecarboxamide, hemihidrate]"
